Assay results: patent US20220308062A1, “METHODS FOR PREDICTING DRUG RESPONSIVENESS IN SAMPLES FROM CANCER SUBJECTS” (Board of Regents, The University of Texas System, priority 2019, published 2022)

What was measured:
[1] = tested on: A549 cells; test: Proliferation assay (IncuCyte ZOOM), A549; format: cell-based; settings: Homo sapiens, read-out: IC50 from proliferation curves
Method: Analysis was performed using IncuCyte ZOOM (Essen BioScience) with images acquired every 3 hr for up to 72 hr. Four images (proliferation) and one image (wound healing) were captured per well for each time point. Data were normalized to controls, and values for 50% effective concentration were calculated using Prism V7.0 (GraphPad software, San Diego, Calif.).
In vitro phenotypic assay. […] Proliferation and migration curves were generated using IncuCyte ZOOM (Essen BioScience) with images acquired every 3 hr over a 72 hr timeframe. Images were captured per well for each time point. Data were normalized to controls, and values for 50% inhibitory concentration were calculated using Prism V8.0 (GraphPad software).

[2] = tested on: A549 and H2009 cells; test: CyTOF profiling of lung cancer cell lines; format: cell-based, human
Method: Cytometry by time of flight mass spectrometry (CyTOF). Antibodies were conjugated according to the manufacturer's instructions (Fluidigm, South San Francisco, Calif.) or purchased in pre-conjugated forms from the supplier (Fluidigm). […] The cells were harvested and stained with cisplatin (Fluidigm) and metal-conjugated surface antibodies sequentially for viability and surface staining. After fixation and permeabilization, the intracellular staining with metal-conjugated antibodies was performed. The cells were then labeled with an iridium-containing DNA intercalator (^191Ir^+, ^193Ir^+) to identify cell events before analysis on a Helios mass cytometer (Fluidigm). Signals were bead-normalized using EQ Four Element Calibration Beads (Fluidigm). Signals of samples were normalized using CyTOF software (Version 6.7.1014, Fluidigm). The generated files underwent signal cleanup and filtering for live/dead cells using Cytobank (https://www.cytobank.org/, Cytobank Inc.) and download gated Flow Cytometry Standard (FCS) file for further analysis using Cytofkit based on PhenoGraph algorithm, which was implemented in R and freely available from the Bioconductor website (https://bioconductor.org/packages/cytofkit/). CyTOF data was visualized using t-distributed stochastic neighbor embedding (t-SNE) algorithm and plotted on a continuum of protein expression with phenotypically related cells clustered together.
(§1) Cytometry by time-of-flight (CyTOF). Antibodies were conjugated in-house according to the manufacturer's instructions or purchased in pre-conjugated forms from the supplier (Fluidigm; Table 5). Single cells from cell lines, tumors, or PBMCs were harvested and stained with cisplatin and metal-conjugated surface antibodies sequentially for viability and surface staining. After fixation and permeabilization, cells were stained with metal-conjugated antibodies. The cells were then labeled with an iridium-containing DNA intercalator (^191Ir^+ or ^193Ir^+) for identification of cell events before analysis on a Helios mass cytometer. Signals were bead-normalized using EQ Four Element Calibration Beads.
Signals of samples were normalized using CyTOF software (Version 6.7.1014, Fluidigm). The generated files underwent signal cleanup and filtering for single cells using Cytobank (https://www.cytobank.org/). The gated Flow Cytometry Standard (FCS) file were downloaded for further analysis using Cytofkit. The PhenoGraph clustering algorithm in Cytofkit was implemented in R from the Bioconductor website (https://bioconductor.org/packages/cytofkit/). […] Epithelial and mesenchymal indices were calculated based on the average Z-score of epithelial and mesenchymal markers. […]

[3] = tested on: PMA-stimulated U937 macrophages cocultured with A549 or H2009; test: U937 coculture with lung cancer cells, CyTOF; format: cell-based, human
Source text: as §1, with “Materials and methods. U937 coculture with lung cancer cells. […] The cells were harvested and fixed to process CyTOF staining.” for “Cytometry by time-of-flight (CyTOF).”, “(Fluidigm).” for “(Fluidigm; Table 5).”, “lines” for “lines, tumors, or PBMCs”, “(191Ir+” for “(^191Ir^+”, “193Ir+)” for “^193Ir^+)”
Signals of samples were normalized using CyTOF software (Version 6.7.1014, Fluidigm). The generated files underwent signal cleanup and filtering for single cells using Cytobank (https://www.cytobank.org/). Macrophage population was gated out based on CD45 expression to generate Flow Cytometry Standard (FCS) file. The gated FCS file were downloaded for further analysis using Cytofkit. The PhenoGraph clustering algorithm in Cytofkit was implemented in R from the Bioconductor website (https://bioconductor.org/packages/cytofkit/). CyTOF data of macrophage were clustered and visualized using t-distributed stochastic neighbor embedding (t-SNE) algorithm based on normalized expression levels (Z-score) of 4 markers (CD14, CD16, CD163 and CD86).

[4] = tested on: two other TAM family; settings: refs [21, 22]; concentration not given; cited from earlier work

CN1CCN(Cc2ccc(Nc3ncc(Cl)c(Nc4ccccc4S(=O)(=O)N(C)C)n3)cc2)CC1 [TP-0903]
IC50 [1]: 31.6 nM
phosphorylated STAT3 (pSTAT3) levels (CyTOF) ([2]; A549, 40 nmol/L): dramatically increased
SMAD4 (CyTOF) ([2]; A549 subpopulations #6-8, 40 nmol/L): suppressed
JAK1-pSTAT3 expression (CyTOF) ([2]; H2009 subpopulations #15 and 16 after treatment): amplified
CD133 (CyTOF) ([2]; cell lines, 40 nmol/L): elevated
high CD163 subpopulations ([3]; 20, 40 and 80 nmol/L, increasing concentration): decreased
CD14high/CD16+/CD163high/CD86high macrophage subtype proportion ([3]; 72 hr coculture): decreased
SMAD2 in CD14high/CD16+/CD163high/CD86high subtype ([3]; 72 hr coculture): down-regulated
inhibition of two other TAM family [4]: 80%
